Laboratory results as given in article PMC6315541, “Nile Tilapia Derived Antimicrobial Peptide TP4 Exerts Antineoplastic Activity Through Microtubule Disruption” (Marine Drugs, 2018).

Columns and labels:
α-Tubulin = experiment: Co-immunoprecipitation (TP4 antibody pull-down), LC-MS/MS and immunoblot; format: binding, Homo sapiens; conditions: lysates of A549 cells treated with 10 μg mL^−1 TP4 for 3 h
Procedure: To characterize the intracellular targets of TP4, cell lysates from A549 cells treated with 10 μg mL^−1 TP4 for 3 h were pulled down with the TP4 antibody, see Figure 1A. The dominant band was excised from the gel and analyzed by LC-MS/MS. Based on a MASCOT search for peptides found by MS, the potential binding target for TP4 was identified as α-Tubulin, see Figure 1C and Supplementary Dataset S1. […] Because tubulin is the major component of microtubules, we hypothesized that the cytotoxic effects of intracellular TP4 may be related to microtubule dynamics.
Figure 1 TP4 interacts with α-Tubulin. (A) Procedure showing the pull down of TP4 interaction partners with TP4 antibody. […] (C) Protein database searching of peptides detected by MS identified α-Tubulin as a TP4 binding partner. α-Tubulin sequence is shown. […]
Cell lysates were prepared in immunoprecipitation (IP) detergent (50 mM Tris-HCl, pH 8.0, 150 mM NaCl, 1% Igepal CA-630: Sigma-Aldrich, St. Louis, MO, USA) with protease cocktail (Roche Applied Science, Mannheim, Germany). […] The mass spectrometry data were analyzed by Mascot engine (v.2.6.0) (Matrix Science Inc., Boston, MA, USA) to identify candidate interaction targets. […] Signals were detected by enhanced chemiluminescence (Immobilon Western Chemiluminescent HRP substrate, Merck Millipore, Billerica, MA, USA) on an imaging system (UVP, BioSpectrumTM 500, Upland, CA, USA). […]

[1] = system: α-Tubulin protein level in A549 cells; experiment: Western blot of α-Tubulin protein level in A549 cells; format: cell-based, human; conditions: TP4 vs vehicle, Figure 2B
Procedure: To examine whether TP4 may affect microtubule dynamics, A549 cells were treated with TP4, and cytoskeletal elements were analyzed by immunocytochemistry (ICC). […] We then asked whether TP4 treatment may influence tubulin protein levels by performing Western blots on lysates from A549 cells that had been treated with vehicle or TP4. […] We next conducted a microtubule regrowth assay to further address whether TP4 may disrupt microtubule polymerization. TP4 was applied to A549 cells that had been treated with or without Nocodazole (20 μM) treatment for 6 h, which completely depolymerizes the microtubule network. The repolymerization of microtubules was then initialized by the addition of fresh recovery medium, and regrowth was analyzed by ICC.
Figure 2 TP4 disrupts the microtubule network in cancer cells. (A) Cells were stained for α-Tubulin and F-actin. Hoechst33342 was used to stain nuclei. Arrows indicate cells with negative α-Tubulin staining. Bar: 20 μm. (B) Total lysates from cells with mock (labeled C) or TP4 treatment (labeled T) were analyzed by Western blot using antibodies against GAPDH and α-Tubulin. Quantification of the α-Tubulin signal normalized to GAPDH is shown. Mr is the molecular weight. […] Bar: 20 μm (D) Quantification of the number of cells with Tubulin-positive and Tubulin-negative staining. […]

Sequence: FIHHIIGGLFSAGKAIHRLIRRRRR [TP4, synthesized Nile tilapia-derived antimicrobial peptide, Tilapia piscidin 4]
- interaction with α-Tubulin (IP with TP4 antibody, probed with α-Tubulin antibody) (α-Tubulin): confirming the interaction between TP4 and α-Tubulin
- level of α-Tubulin protein (normalized to GAPDH) [1]: not significantly affected
